Molecular target: MsmK (Streptococcus suis, UniProt A0A0H3N1P0)
Details: 1 mM ATP, 10 mM MgCl2, 200 mM KCl, 50 mM PIPES/NaOH pH 6.8, 1 mM β-mercaptoethanol, 30°C, 1 h; labelled compound

Chain of MsmK (A0A0H3N1P0 entry or part of it): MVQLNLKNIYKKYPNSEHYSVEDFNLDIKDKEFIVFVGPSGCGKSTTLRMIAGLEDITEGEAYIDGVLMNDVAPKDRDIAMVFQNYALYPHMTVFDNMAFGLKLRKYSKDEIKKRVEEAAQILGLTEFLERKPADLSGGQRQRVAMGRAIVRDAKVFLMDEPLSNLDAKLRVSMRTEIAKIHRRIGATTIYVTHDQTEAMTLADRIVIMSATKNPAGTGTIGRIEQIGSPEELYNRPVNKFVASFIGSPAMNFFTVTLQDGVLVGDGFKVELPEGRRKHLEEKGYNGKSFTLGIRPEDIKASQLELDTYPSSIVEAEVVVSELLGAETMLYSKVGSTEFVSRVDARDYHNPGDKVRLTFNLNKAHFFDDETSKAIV

SMILES: Nc1ncnc2c1ncn2[C@@H]1O[C@H](COP(=O)(O)OP(=O)(O)OP(=O)(O)O)[C@@H](O)[C@H]1O [ATP]
- radiometric TLC of ADP formed from [α-32P]-ATP: ATPase assays showed that the recombinant protein could hydrolyze ATP to ADP
